Laboratory results published in ChEMBL document CHEMBL2424524, “Synthesis and biological evaluation of novel ocotillol-type triterpenoid derivatives as antibacterial agents” (Eur J Med Chem, 2013).
Values after ≈ are worked out from the molar mass of the structure shown.

Columns and labels:
Bacillus subtilis [1] = assay: Antibacterial activity against Bacillus subtilis 168 by dilution technique; assay type: functional; conditions: subsp. subtilis str. 168
Acinetobacter baumannii = assay: Antibacterial activity against Acinetobacter baumannii by dilution technique; assay type: functional
Escherichia coli = assay: Antibacterial activity against Escherichia coli by dilution technique; assay type: functional
Pseudomonas aeruginosa = assay: Antibacterial activity against Pseudomonas aeruginosa by dilution technique; assay type: functional
Staphylococcus aureus [2] = assay: Antibacterial activity against Staphylococcus aureus RN4220 by dilution technique; assay type: functional
Staphylococcus aureus [3] = assay: Antibacterial activity against community associated methicillin-resistant Staphylococcus aureus USA300 by dilution technique; assay type: functional
Staphylococcus aureus [4] = assay: Antibacterial activity against community associated methicillin-resistant Staphylococcus aureus USA300 by dilution technique in presence of kanamycin; assay type: functional
Bacillus subtilis [5] = assay: Antibacterial activity against Bacillus subtilis 168 by dilution technique in presence of kanamycin; assay type: functional, subsp. subtilis str. 168
Staphylococcus aureus [6] = assay: Antibacterial activity against community associated methicillin-resistant Staphylococcus aureus USA300 by dilution technique in presence of chloramphenicol; assay type: functional
Bacillus subtilis [7] = assay: Antibacterial activity against Bacillus subtilis 168 by dilution technique in presence of chloramphenicol; assay type: functional, subsp. subtilis str. 168
[8] = Selectivity index, ratio of IC50 for human HEK293 cells to MIC for community associated methicillin-resistant Staphylococcus aureus USA300; assay type: functional
[9] = Selectivity index, ratio of IC50 for human HEK293 cells to MIC for Staphylococcus aureus RN4220; assay type: functional
HEK293 = assay: Cytotoxicity against human HEK293 cells after 72 hrs by MTT assay; assay type: cell-based; conditions: HEK293, 72 h
HeLa = assay: Cytotoxicity against human HeLa cells after 72 hrs by MTT assay; assay type: cell-based
[10] = Selectivity index, ratio of IC50 for human HeLa cells to MIC for community associated methicillin-resistant Staphylococcus aureus USA300; assay type: functional
[11] = Selectivity index, ratio of IC50 for human HeLa cells to MIC for Staphylococcus aureus RN4220; assay type: functional

Structure (SMILES) | MIC (Bacillus subtilis [1]) [µg/mL] | MIC (Acinetobacter baumannii) [µg/mL] | MIC (Escherichia coli) [µg/mL] | MIC (Pseudomonas aeruginosa) [µg/mL] | MIC (Staphylococcus aureus [2]) [µg/mL] | MBC (Bacillus subtilis [1]) [µg/mL] | MIC (Staphylococcus aureus [3]) [µg/mL] | fractional inhibitory concentration index (FICI) (Staphylococcus aureus [4]) | fractional inhibitory concentration index (FICI) (Bacillus subtilis [5]) | fractional inhibitory concentration index (FICI) (Staphylococcus aureus [6]) | fractional inhibitory concentration index (FICI) (Bacillus subtilis [7]) | Selectivity Index [8] | Selectivity Index [9] | IC50 (HEK293) [µg/mL] | IC50 (HeLa) [µg/mL] | Selectivity Index [10] | Selectivity Index [11] | MBC (Staphylococcus aureus [3]) [µg/mL] | MBC (Staphylococcus aureus [2]) [µg/mL]
CC(C)(O)[C@H]1CC[C@@](C)([C@H]2CC[C@]3(C)[C@@H]2C(=O)C[C@@H]2[C@@]4(C)CC[C@H](O)C(C)(C)[C@@H]4CC[C@]23C)O1 | 128 (≈ 270 µM) | > 128 | > 128 | > 128 | > 128 | – | – | – | – | – | – | – | – | – | – | – | – | – | –
CC(C)(O)[C@@H]1CC[C@@](C)([C@H]2CC[C@]3(C)[C@@H]2[C@H](O)C[C@@H]2[C@@]4(C)CCC(=O)C(C)(C)[C@@H]4CC[C@]23C)O1 | 32 (≈ 67.4 µM) | > 128 | > 128 | > 128 | > 128 | – | – | – | – | – | – | – | – | – | – | – | – | – | –
CC(C)(O)[C@H]1CC[C@@](C)([C@H]2CC[C@]3(C)[C@@H]2[C@H](OC(=O)c2ccccc2C(=O)O)C[C@@H]2[C@@]4(C)CC[C@H](O)C(C)(C)[C@@H]4CC[C@]23C)O1 | 16 (≈ 25.6 µM) | > 128 | > 128 | > 128 | 64 (≈ 102 µM) | 128 (≈ 205 µM) | 64 (≈ 102 µM) | – | – | – | – | – | – | – | – | – | – | – | –
CC(C)(O)[C@H]1CC[C@@](C)([C@H]2CC[C@]3(C)[C@@H]2C(=O)C[C@@H]2[C@@]4(C)CCC(=O)C(C)(C)[C@@H]4CC[C@]23C)O1 | 128 (≈ 271 µM) | > 128 | > 128 | > 128 | 128 (≈ 271 µM) | – | – | – | – | – | – | – | – | – | – | – | – | – | –
CC(C)=CCC[C@](C)(O)[C@H]1CC[C@]2(C)[C@@H]1[C@H](O)C[C@@H]1[C@@]3(C)CC[C@H](O)C(C)(C)[C@@H]3CC[C@]12C | 32 (≈ 69.5 µM) | 64 (≈ 139 µM) | 64 (≈ 139 µM) | > 128 | 16 (≈ 34.7 µM) | – | 32 (≈ 69.5 µM) | 0.26 | 0.25 | 1.13 | 0.53 | – | – | – | – | – | – | – | –
CC(C)(O)[C@@H]1CC[C@@](C)([C@H]2CC[C@]3(C)[C@@H]2C(=O)C[C@@H]2[C@@]4(C)CC[C@H](O)C(C)(C)[C@@H]4CC[C@]23C)O1 | > 128 | > 128 | 64 (≈ 135 µM) | > 128 | 64 (≈ 135 µM) | – | – | – | – | – | – | – | – | – | – | – | – | – | –
CC(C)(O)[C@@H]1CC[C@@](C)([C@H]2CC[C@]3(C)[C@@H]2[C@H](OC(=O)/C=C/c2ccccc2)C[C@@H]2[C@@]4(C)CC[C@H](O)C(C)(C)[C@@H]4CC[C@]23C)O1 | > 128 | 32 (≈ 52.7 µM) | > 128 | 128 (≈ 211 µM) | > 128 | – | – | – | – | – | – | – | – | – | – | – | – | – | –
CC(C)(O)[C@@H]1CC[C@@](C)([C@H]2CC[C@]3(C)[C@@H]2[C@H](O)C[C@@H]2[C@@]4(C)CC[C@H](O)C(C)(C)[C@@H]4CC[C@]23C)O1 | 8 (≈ 16.8 µM) | > 128 | > 128 | > 128 | 8 (≈ 16.8 µM) | – | 8 (≈ 16.8 µM) | 0.14 | 1.03 | 1.5 | 1.25 | 19.3 | 19.3 | 154 (≈ 324 µM) | 47.6 (≈ 99.9 µM) | 6 | 6 | – | –
CC(C)(O)[C@@H]1CC[C@@](C)([C@H]2CC[C@]3(C)[C@@H]2[C@H](OC(=O)c2ccccc2C(=O)O)C[C@@H]2[C@@]4(C)CC[C@H](O)C(C)(C)[C@@H]4CC[C@]23C)O1 | 16 (≈ 25.6 µM) | > 128 | > 128 | 128 (≈ 205 µM) | 4 (≈ 6.4 µM) | 64 (≈ 102 µM) | 32 (≈ 51.2 µM) | 0.008 | <0.008 | 0.005 | <0.004 | 5.5 | 43.8 | 175 (≈ 281 µM) | 54.4 (≈ 87 µM) | 1.7 | 13.6 | 128 (≈ 205 µM) | 64 (≈ 102 µM)
CC(C)(O)[C@H]1CC[C@@](C)([C@H]2CC[C@]3(C)[C@@H]2[C@H](O)C[C@@H]2[C@@]4(C)CCC(=O)C(C)(C)[C@@H]4CC[C@]23C)O1 | 128 (≈ 270 µM) | > 128 | > 128 | > 128 | 128 (≈ 270 µM) | – | – | – | – | – | – | – | – | – | – | – | – | – | –
CC(=O)O[C@@H]1C[C@@H]2[C@@]3(C)CC[C@H](O)C(C)(C)[C@@H]3CC[C@@]2(C)[C@]2(C)CC[C@H]([C@]3(C)CC[C@@H](C(C)(C)O)O3)[C@@H]12 | > 128 | 64 (≈ 123 µM) | 64 (≈ 123 µM) | 64 (≈ 123 µM) | > 128 | – | – | – | – | – | – | – | – | – | – | – | – | – | –
CC(C)(O)[C@@H]1CC[C@@](C)([C@H]2CC[C@]3(C)[C@@H]2C(=O)C[C@@H]2[C@@]4(C)CCC(=O)C(C)(C)[C@@H]4CC[C@]23C)O1 | 64 (≈ 135 µM) | > 128 | > 128 | > 128 | 16 (≈ 33.8 µM) | – | 16 (≈ 33.8 µM) | – | – | – | – | 10.6 | 10.6 | 170 (≈ 360 µM) | 47 (≈ 99.4 µM) | 2.9 | 2.9 | – | –
CC(=O)O[C@@H]1C[C@@H]2[C@@]3(C)CC[C@H](O)C(C)(C)[C@@H]3CC[C@@]2(C)[C@]2(C)CC[C@H]([C@]3(C)CC[C@H](C(C)(C)O)O3)[C@@H]12 | > 128 | 128 (≈ 247 µM) | 64 (≈ 123 µM) | 128 (≈ 247 µM) | 64 (≈ 123 µM) | – | – | – | – | – | – | – | – | – | – | – | – | – | –
NC[C@H]1O[C@H](O[C@H]2[C@H](O)[C@@H](O[C@H]3O[C@H](CO)[C@@H](O)[C@H](N)[C@H]3O)[C@H](N)C[C@@H]2N)[C@H](O)[C@@H](O)[C@@H]1O [KANAMYCIN] | 0.25 (≈ 0.516 µM) | 1 (≈ 2.06 µM) | 1 (≈ 2.06 µM) | 8 (≈ 16.5 µM) | 1 (≈ 2.06 µM) | 1 (≈ 2.06 µM) | 1 (≈ 2.06 µM) | – | – | – | – | – | – | – | – | – | – | 4 (≈ 8.26 µM) | –
C=C(C)[C@@H]1CC[C@]2(C(=O)O)CC[C@]3(C)[C@H](CC[C@@H]4[C@@]5(C)CC[C@H](O)[C@@](C)(CO)[C@@H]5CC[C@]43C)[C@@H]12 | 8 (≈ 16.9 µM) | > 128 | > 128 | > 128 | 16 (≈ 33.8 µM) | – | 16 (≈ 33.8 µM) | – | – | – | – | – | – | – | – | – | – | – | –
O=C(N[C@H](CO)[C@H](O)c1ccc([N+](=O)[O-])cc1)C(Cl)Cl [CHLORAMPHENICOL] | 2 (≈ 6.19 µM) | – | – | – | – | – | 4 (≈ 12.4 µM) | – | – | – | – | – | – | – | – | – | – | – | –
CC(C)(O)[C@H]1CC[C@@](C)([C@H]2CC[C@]3(C)[C@@H]2[C@H](O)C[C@@H]2[C@@]4(C)CC[C@H](O)C(C)(C)[C@@H]4CC[C@]23C)O1 | 128 (≈ 268 µM) | 128 (≈ 268 µM) | > 128 | > 128 | 64 (≈ 134 µM) | – | – | – | – | – | – | – | – | – | – | – | – | – | –
O=c1[nH]cc(F)c(=O)[nH]1 [FLUOROURACIL] | – | – | – | – | – | – | – | – | – | – | – | – | – | – | 0.8 (≈ 6.15 µM) | – | – | – | –
